Test results reported in patent US20140309210A1, “INDAZOLE COMPOUNDS, COMPOSITIONS AND METHODS OF USE THEREOF” (Genentech, Inc., priority 2011, published 2014).

Molecular target: T1, purified ITK (Invitrogen PV3875) (Homo sapiens, UniProt Q08881)
T1 construct: purchased Invitrogen PV3875
T1 sequence (Q08881 1-620): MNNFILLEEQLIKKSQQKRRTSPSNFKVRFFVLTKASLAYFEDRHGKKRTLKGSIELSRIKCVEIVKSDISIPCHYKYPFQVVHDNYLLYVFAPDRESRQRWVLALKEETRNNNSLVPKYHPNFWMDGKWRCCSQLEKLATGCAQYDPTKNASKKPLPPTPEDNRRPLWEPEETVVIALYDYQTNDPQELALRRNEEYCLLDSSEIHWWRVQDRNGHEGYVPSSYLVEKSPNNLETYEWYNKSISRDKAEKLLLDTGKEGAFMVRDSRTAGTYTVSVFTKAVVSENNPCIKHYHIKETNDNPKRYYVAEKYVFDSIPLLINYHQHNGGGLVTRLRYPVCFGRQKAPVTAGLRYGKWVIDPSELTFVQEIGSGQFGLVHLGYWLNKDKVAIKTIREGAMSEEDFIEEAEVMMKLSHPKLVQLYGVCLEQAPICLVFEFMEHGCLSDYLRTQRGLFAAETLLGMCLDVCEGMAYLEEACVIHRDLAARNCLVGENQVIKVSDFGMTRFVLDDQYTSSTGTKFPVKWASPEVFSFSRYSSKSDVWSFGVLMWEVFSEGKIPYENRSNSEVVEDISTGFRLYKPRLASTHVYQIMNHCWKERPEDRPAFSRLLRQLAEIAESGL
Assay: ITK peptide phosphorylation assay (Caliper LabChip or LCMS)
Assay type: biochemical
Conditions: Table 1, Examples 141-279
In short: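 Purified human ITK peptide phosphorylation, quenched with EDTA (50 mM final) for Caliper LabChip separation or TCA (5% v/v final) for UPLC-MS/MS MRM quantification. Ki derived via Morrison tight-binding equation, corrected for competitive inhibition using ATP concentration relative to Km,app.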

Structure (SMILES) | Ki [nM]
O=C(Nc1cnn(Cc2cncnc2)c1)c1n[nH]c2cc(-c3cn[nH]c3)ccc12 [Example 226, 6-(1H-pyrazol-4-yl)-N-[1-(pyrimidin-5-ylmethyl)pyrazol-4-yl]-1H-indazole-3-carboxamide] | 1.12
O=C(Nc1cnn(Cc2cnc(N3CCOCC3)nc2)c1)c1n[nH]c2cc(-c3cn[nH]c3)ccc12 [Example 227, N-[1-[(2-morpholinopy-rimidin-5-yl)methyl]pyrazol-4-yl]6-(1H-pyrazol-4-yl)-1H-indazole-3-carboxamide] | 2.36
COCCN(C)CC(c1cccnc1)n1cc(NC(=O)c2n[nH]c3cc(-c4cncc(OC)c4)ccc23)cn1 (stereo not shown) [Example 228, N-[1-[2-[2-methoxyethyl(meth-yl)amino]-1-(3-pyridyl)ethyl]py-razol-4-yl]-6-(5-methoxy-3-pyridyl)-1H-indazole-3-carboxamide] | 5.54
COCCN(C)CC(c1cccnc1)n1cc(NC(=O)c2n[nH]c3cc(-c4cncc(OC)c4)ccc23)cn1 (stereo not shown) [Example 229, N-[1-[2-[2-methoxyethyl(meth-yl)amino]-1-(3-pyridyl)ethyl]py-razol-4-yl]-6-(5-methoxy-3-pyridyl)-1H-indazole-3-carboxamide] | 32.4
O=C(Nc1cnn(Cc2ccccc2)c1)c1n[nH]c2c(F)cccc12 [Example 230, N-(1-benzylpyrazol-4-yl)-7-fluoro-1H-indazole-3-carboxamide] | 726
CN1CCOc2cc(-c3ccc4c(C(=O)Nc5cnn(Cc6cccnc6)c5)n[nH]c4c3)cnc21 [Example 231, 6-(4-methyl-2,3-dihydropyrido[3,2-b][1,4]oxazin-7-yl)-N-[1-(3-pyridylmethyl)py-razol-4-yl]-1H-indazole-3-carboxamide] | 40.8
COc1cncc(-c2ccc3c(C(=O)Nc4cnn(C(CN5CCN(C)CC5)c5cccnc5)c4)n[nH]c3c2)c1 (stereo not shown) [Example 232, 6-(5-methoxy-3-pyridyl)-N-[1-[2-(4-methylpiperazin-1-yl)-1-(3-pyridyl)ethyl]py-razol-4-yl]-1H-indazole-3-carboxamide] | 31.4
COc1cncc(-c2ccc3c(C(=O)Nc4cnn(C(CN(C)C)c5cccnc5)c4)n[nH]c3c2)c1 (stereo not shown) [Example 233, N-[1-[2-(dimethylamino)-1-(3-pyridyl)ethyl]py-razol-4-yl]-6-(5-methoxy-3-pyridyl)-1H-indazole-3-carboxamide] | 51
COc1cncc(-c2ccc3c(C(=O)Nc4cnn(C(CN5CCN(C)CC5)c5cccnc5)c4)n[nH]c3c2)c1 (stereo not shown) [Example 234, 6-(5-methoxy-3-pyridyl)-N-[1-[2-(4-methylpiperazin-1-yl)-1-(3-pyridyl)ethyl]py-razol-4-yl]-1H-indazole-3-carboxamide] | 5.38
O=C(Nc1cnn(CC2CCOC2)c1)c1n[nH]c2cc(-c3cn[nH]c3)ccc12 (stereo not shown) [Example 235, 6-(1H-pyrazol-4-yl)-N-[1-(tetrahydrofuran-3-ylmethyl)pyrazol-4-yl]-1H-indazole-3-carboxamide] | 4.64
O=C(Nc1cnn(CC2CCC2)c1)c1n[nH]c2cc(-c3cn[nH]c3)ccc12 [Example 236, N-[1-(cyclobutylmeth-yl)pyrazol-4-yl]-6-(1H-pyrazol-4-yl)-1H-indazole-3-carboxamide] | 6.09
O=C(Nc1cnn(CC2COCCO2)c1)c1n[nH]c2cc(-c3cn[nH]c3)ccc12 (stereo not shown) [Example 237] | 3.7
CCC(CC)Cn1cc(NC(=O)c2n[nH]c3cc(-c4cn[nH]c4)ccc23)cn1 [Example 238, N-[1-(2-ethylbutyl)pyrazol-4-yl]-6-(1H-pyrazol-4-yl)-1H-indazole-3-carboxamide] | 2.79
O=C(Nc1cnn(CC2CCCO2)c1)c1n[nH]c2cc(-c3cn[nH]c3)ccc12 (stereo not shown) [Example 239, 6-(1H-pyrazol-4-yl)-N-[1-(tetrahydrofuran-2-ylmethyl)pyrazol-4-yl]-1H-indazole-3-carboxamide] | 6.58
O=C(Nc1cnn(CC2CC2)c1)c1n[nH]c2cc(-c3cn[nH]c3)ccc12 [Example 240, N-[1-(cyclopropylmeth-yl)pyrazol-4-yl]-6-(1H-pyrazol-4-yl)-1H-indazole-3-carboxamide] | 5.33
O=C(Nc1cnn(CC2CCCOC2)c1)c1n[nH]c2cc(-c3cn[nH]c3)ccc12 (stereo not shown) [Example 241, 6-(1H-pyrazol-4-yl)-N-[1-(tetrahydropyran-3-ylmethyl)pyrazol-4-yl]-1H-indazole-3-carboxamide] | 2.79
O=C(Nc1cnn(CC2CCOCC2)c1)c1n[nH]c2cc(-c3cn[nH]c3)ccc12 [Example 242] | 2.47
O=C(Nc1cnn(CC2CCCCC2)c1)c1n[nH]c2cc(-c3cn[nH]c3)ccc12 [Example 243, N-[1-(cyclohexylmeth-yl)pyrazol-4-yl]-6-(1H-pyrazol-4-yl)-1H-indazole-3-carboxamide] | 2.43
O=C(Nc1cnn(Cc2ccccc2)c1)c1n[nH]c2cc(-c3cn[nH]c3)cnc12 [Example 245, N-(1-benzylpyrazol-4-yl)-6-(1H-pyrazol-4-yl)-1H-pyrazolo[4,3-b]pyridine-3-carboxamide] | 18.9
Cc1cccc(C(CCN(C)C)n2cc(NC(=O)c3n[nH]c4cc(-c5cn[nH]c5)ccc34)cn2)c1 (stereo not shown) [Example 246, N-[1-[3-(dimethylamino)-1-(m-tolyl)propyl]py-razol-4-yl]-6-(1H-pyrazol-4-yl)-1H-indazole-3-carboxamide] | 0.0734

Continued, values first:

Ki [nM] | Structure (SMILES)
0.127 | CN(C)CCC(c1cccc(Cl)c1)n1cc(NC(=O)c2n[nH]c3cc(-c4cn[nH]c4)ccc23)cn1 (stereo not shown) [Example 247, N-[1-[1-(3-chlorophenyl)-3-(dimethylami-no)propyl]pyrazol-4-yl]-6-(1H-pyrazol-4-yl)-1H-indazole-3-carboxamide]
0.128 | CN(C)CCC(c1cccc(C(F)(F)F)c1)n1cc(NC(=O)c2n[nH]c3cc(-c4cn[nH]c4)ccc23)cn1 (stereo not shown) [Example 248, N-[1-[3-(dimethylamino)-1-[3-(trifluorometh-yl)phenyl]propyl]py-razol-4-yl]-6-(1H-pyrazol-4-yl)-1H-indazole-3-carboxamide]
0.06 | CN(C)CCC(c1cccc(Cl)c1)n1cc(NC(=O)c2n[nH]c3cc(-c4cn[nH]c4)ccc23)cn1 (stereo not shown) [Example 249, N-[1-[1-(3-chlorophenyl)-3-(dimethylami-no)propyl]pyrazol-4-yl]-6-(1H-pyrazol-4-yl)-1H-indazole-3-carboxamide]
103 | N#Cc1cccc(Cn2cc(NC(=O)c3n[nH]c4cc(C(F)(F)F)ccc34)cn2)c1 [Example 250, N-[1-[(3-cyanophenyl)meth-yl]pyrazol-4-yl]-6-(trifluoromethyl)-1H-indazole-3-carboxamide]
5 | O=C(Nc1cnn(CC2CC3CCC2C3)c1)c1n[nH]c2cc(-c3cn[nH]c3)ccc12 (stereo not shown) [Example 251, N-[1-(norbornan-2-ylmethyl)pyrazol-4-yl]-6-(1H-pyrazol-4-yl)-1H-indazole-3-carboxamide]
3.58 | CC(C)CN1CCOC(Cn2cc(NC(=O)c3n[nH]c4cc(-c5cn[nH]c5)ccc34)cn2)C1 (stereo not shown) [Example 252, N-[1-[(4-isobutylmorpholin-2-yl)methyl]pyrazol-4-yl]-6-(1H-pyrazol-4-yl)-1H-indazole-3-carboxamide]
36.7 | CC1(Cn2cc(NC(=O)c3n[nH]c4cc(-c5cn[nH]c5)ccc34)cn2)COC1 [Example 253, N-[1-[(3-methyloxetan-3-yl)methyl]pyrazol-4-yl]-6-(1H-pyrazol-4-yl)-1H-indazole-3-carboxamide]
6.5 | CN1CCC(Cn2cc(NC(=O)c3n[nH]c4cc(-c5cn[nH]c5)ccc34)cn2)C1 (stereo not shown) [Example 254, N-[1-[(1-methylpyrrolidin-3-yl)methyl]pyrazol-4-yl]-6-(1H-pyrazol-4-yl)-1H-indazole-3-carboxamide]
38.3 | COC(=O)C(c1ccccc1)n1cc(NC(=O)c2n[nH]c3ccccc23)cn1 (stereo not shown) [Example 255, methyl 2-[4-(1H-indazole-3-carbonylamino)py-razol-1-yl]-2-phenyl-acetate]
146 | O=C(Nc1cnn(C(CO)c2ccccc2)c1)c1n[nH]c2ccccc12 (stereo not shown) [Example 256, N-[1-(2-hydroxy-1-phenyl-ethyl)pyrazol-4-yl]-1H-indazole-3-carboxamide]
35.5 | O=C(Nc1cnn(C(CO)c2ccccc2)c1)c1n[nH]c2ccccc12 (stereo not shown) [Example 257, N-[1-(2-hydroxy-1-phenyl-ethyl)pyrazol-4-yl]-1H-indazole-3-carboxamide]
5.68 | CN1CCC(Cn2cc(NC(=O)c3n[nH]c4cc(-c5cn[nH]c5)ccc34)cn2)CC1 [Example 258, N-[1-[(1-methyl-4-piperidyl)meth-yl]pyrazol-4-yl]-6-(1H-pyrazol-4-yl)-1H-indazole-3-carboxamide]
2.76 | O=C(Nc1cnn(CC2CN(Cc3ccccc3)CCO2)c1)c1n[nH]c2cc(-c3cn[nH]c3)ccc12 (stereo not shown) [Example 259, N-[1-[(4-benzylmorpholin-2-yl)methyl]pyrazol-4-yl]-6-(1H-pyrazol-4-yl)-1H-indazole-3-carboxamide]
11.9 | N#CCn1cc(NC(=O)c2n[nH]c3cc(-c4cn[nH]c4)ccc23)cn1 [Example 260, N-[1-(cyanomethyl)py-razol-4-yl]-6-(1H-pyrazol-4-yl)-1H-indazole-3-carboxamide]
